How the values were obtained:
[1] = target: T1, FLT-3 (Homo sapiens, UniProt P36888); test: FLT-3 ligand stimulated FLT-3 phosphorylation in OC1-AML5 cells; assay type: cell-based; settings: FLT-3 ligand stimulated OC1-AML5 cells
T1 construct: The OC1-AML5 cell line which express FLT-3-wild type was obtained (Pharmacia); host or cells: OC1-AML5
T1 sequence (P36888 27-993): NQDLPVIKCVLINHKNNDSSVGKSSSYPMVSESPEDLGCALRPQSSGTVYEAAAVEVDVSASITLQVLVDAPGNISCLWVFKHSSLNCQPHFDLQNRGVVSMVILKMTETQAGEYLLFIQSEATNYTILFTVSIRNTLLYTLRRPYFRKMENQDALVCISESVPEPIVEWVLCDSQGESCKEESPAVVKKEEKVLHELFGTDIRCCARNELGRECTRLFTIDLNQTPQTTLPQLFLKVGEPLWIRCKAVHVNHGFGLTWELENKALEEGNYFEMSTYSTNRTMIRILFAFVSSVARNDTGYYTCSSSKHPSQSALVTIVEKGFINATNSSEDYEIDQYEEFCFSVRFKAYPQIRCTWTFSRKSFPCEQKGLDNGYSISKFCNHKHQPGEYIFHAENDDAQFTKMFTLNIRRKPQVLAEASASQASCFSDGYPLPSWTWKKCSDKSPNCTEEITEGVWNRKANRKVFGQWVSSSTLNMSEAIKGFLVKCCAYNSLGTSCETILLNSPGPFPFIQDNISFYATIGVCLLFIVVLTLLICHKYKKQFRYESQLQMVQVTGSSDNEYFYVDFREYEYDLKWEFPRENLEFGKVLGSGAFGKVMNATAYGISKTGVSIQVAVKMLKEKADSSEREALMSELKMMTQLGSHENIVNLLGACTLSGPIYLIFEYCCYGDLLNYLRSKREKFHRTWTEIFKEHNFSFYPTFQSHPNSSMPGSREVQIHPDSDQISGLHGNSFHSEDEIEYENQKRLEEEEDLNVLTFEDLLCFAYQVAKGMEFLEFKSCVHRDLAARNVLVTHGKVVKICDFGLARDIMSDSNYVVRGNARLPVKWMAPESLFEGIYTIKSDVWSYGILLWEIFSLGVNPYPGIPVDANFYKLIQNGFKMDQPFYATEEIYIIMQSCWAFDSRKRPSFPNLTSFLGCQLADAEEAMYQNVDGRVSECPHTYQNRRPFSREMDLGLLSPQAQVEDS
Text: Cells were stimulated with FLT-3 ligand and lysed. FLT-3 was immunoprecipitated from lysates with a commercially available antibody. Proteins were separated by SDS-polyacrylamide gel electrophoresis, transferred to membranes and analyzed by Western blotting for phosphotyrosine and subsequently for total FLT-3 protein as control.

[2] = test system: MV411 tumors; test: Subcutaneous MV411 tumor model, tumor growth; assay type: in vivo, athymic mice; settings: within 4 days of treatment
Experimental: Tumor cells, MV411 in the example shown were implanted subcutaneously in the hindflank of athymic mice. […] For measurement of efficacy, tumor growth was measured at various subsequent time points using vernier calipers. For analysis of phosphorylation, tumors were resected following dosing (4 hours here), pulverized in liquid nitrogen and homogenized in lysis buffer. FLT-3 and Stat5 phosphorylation were measured by immunoprecipitation and Western blot analysis.
Athymic mice were injected subcutaneously with MV411 and RS411 cells to cause tumor formation.

[3] = test system: MV4; 11; test: VEGF production, MV4;11 cells; assay type: cell-based; settings: for VEGF %: 0 uM = 100
[4] = test system: OC1-AML5; test: VEGF production, OC1-AML5 cells; assay type: cell-based; settings: for VEGF %: 0 uM = 100
[5] = Bone marrow model, survival; assay type: in vivo, NOD-SCID mice; settings: orally once daily
Experimental: NOD-SCID mice were pretreated with cyclophosphamide (Neosar, Pharmacia, Kalamazoo, Mich.) by intraperitoneal injection of 150 mg/kg/day for 2 days ^(46), followed by 24 hours of rest prior to intravenous (i.v.) injection of 5×10^6 cells via the tail vein. At experimental endpoints, mice were anesthetized, followed by terminal blood collection via intracardiac puncture. Bone marrow cell suspensions were prepared by flushing mouse femurs with cold, sterile PBS. For all studies, a paired Student's t test was used to assess differences between treated and control groups (P<0.05 was considered significant).

[6] = test system: VEGF; test: Plasma VEGF by ELISA; assay type: in vivo; settings: plasma of NOD-SCID mice
Experimental: At experimental endpoints, mice were anesthetized, followed by terminal blood collection via intracardiac puncture. Bone marrow cell suspensions were prepared by flushing mouse femurs with cold, sterile PBS. For all studies, a paired Student's t test was used to assess differences between treated and control groups (P<0.05 was considered significant).
Plasma from the NOD-SCID mice described above was analyzed by ELISA for VEGF protein levels using a commercially available kit.

[7] = test system: FLT-3; test: Phase I single dose study, FLT-3 phosphorylation in whole blood; assay type: in vivo, human; settings: AML patients, reached in 3 pts at each dose level >200 mg, WT and mutant FLT-3 patients
Experimental: Immunoprecipitation and Western Blot (IP/W) analysis: Cells were lysed in lysis buffer (20 mM Tris, pH 7.5; 137 mM NaCl; 10% glycerol; 1% NP-40; 0.1% SDS; 2 mM EDTA) containing protease and phosphatase inhibitors (50 mM sodium fluoride, 1 mM sodium orthovanadate, 2 mM Pefabloc, […], […], […], 4 mM leupeptin, and 4 mM pepstatin A). Equivalent amounts of protein were separated by SDS-PAGE, then transferred to nitrocellulose membranes. For analysis of FLT3 phosphorylation, equivalent amounts of protein from each sample were immunoprecipitated overnight at 4*C. with an agarose-conjugated anti-FLT3 antibody (Santa Cruz Biotechnology, Santa Cruz, Calif.). Immune complexes were washed (150 mM NaCl, 1.5 mM MgCl2, 50 mM HEPES, pH 7.5, 10% glycerol, 0.1% Triton X-100, and 1 mM EGTA) and following SDS-PAGE, proteins were transferred to nitrocellulose membranes. Membranes were probed with an anti-phosphotyrosine antibody (Upstate, Lake Placid, N.Y. or Transduction Laboratories, Lexington, Ky.) and then stripped with Restore Western Blot Stripping Buffer (Pierce, Rockford, Ill.). Membranes were reprobed with an anti-FLT3 antibody (Santa Cruz Biotechnology). Stat5 antibodies for immunprecipitation and Western blot analysis were from Upstate Biotechnology and Transduction labs respectively.

SMILES: CCN(CC)CCNC(=O)c1c(C)[nH]c(/C=C2\C(=O)Nc3ccc(F)cc32)c1C [Compound 1, 5-(5-Fluoro-2-oxo-1,2-dihydro-indol-3-ylidenemethyl)-2,4-dimethyl-1H-pyrrole-3-carboxylic acid(2-diethylamino-ethyl)-amide]
- FLT-3 phosphorylation [1]: decreased
- tumor size [2]: dramatically reduced tumor size to almost undetectable
- VEGF mean sd ([3]; CMPD 1 0.00 uM): 287.8
- VEGF % ([3]; CMPD 1 0.00 uM): 83.0%
- VEGF mean sd ([3]; CMPD 1 0.01 uM): 65.4
- VEGF % ([3]; CMPD 1 0.01 uM): 18.9%
- VEGF mean sd ([3]; CMPD 1 0.1 uM): 31.2
- VEGF % ([3]; CMPD 1 0.1 uM): 9.0%
- VEGF mean sd ([3]; CMPD 1 1 uM): 30.5
- VEGF % ([3]; CMPD 1 1 uM): 8.8%
- VEGF mean sd ([3]; CMPD 1 10 uM): 23.3
- VEGF % ([3]; CMPD 1 10 uM): 6.7%
- VEGF mean sd ([4]; CMPD 1 0.00 uM): 92.5
- VEGF % ([4]; CMPD 1 0.00 uM): 91.8%
- VEGF mean sd ([4]; CMPD 1 0.01 uM): 35.6
- VEGF % ([4]; CMPD 1 0.01 uM): 35.3%
- VEGF mean sd ([4]; CMPD 1 0.1 uM): 33.6
- VEGF % ([4]; CMPD 1 0.1 uM): 33.3%
- VEGF mean sd ([4]; CMPD 1 1 uM): 28.3
- VEGF % ([4]; CMPD 1 1 uM): 28.0%
- VEGF % ([4]; CMPD 1 10 uM): 15.5%
- dose with highest efficacy on survival [5]: 20 mg/kg/day
- survival ([5]; range of doses): prolonged survival in a dose-dependent manner
- VEGF in plasma (mean) [6]: 49 pg/mL
- inhibition of FLT-3 phosphorylation [7]: > 50%
